Source: US9943496B2, “Dietary supplement based on ethyl ferulate” (LABORATORIOS MINKAB, S. A. DE C. V., priority 2015, dated 2018)

Key:
β receptors = settings: bovine satellite cells, in vitro; cited from earlier work
swine = settings: 50 ppm, swine confinement; cited from earlier work
heifers [1] = test: Productive performance test of heifers supplemented with ethyl ferulate in the diet; type: in vivo, Bos taurus; settings: for Final weight: last 30 days of intensive feeding; for Final weight / Feed conversion / Daily gain / Feed intake: mean ± standard error; for Feed conversion / Daily gain / Feed intake: last 30 days; for Feed conversion: feed consumption/daily gain
Procedure: Productive performance test was conducted in the feedlot of a commercial farm, located in the state of Sonora, Mexico, at an altitude of 210 meters above sea level, latitude 29° 05′ 56″ and longitude 110° 57′ 15″ (INEGI, 2012).
Prior to the start of the study, 270 cattle (heifers) commercial beef producers crosses (of racial influence mainly Bos taurus), which were divided into three lots with uniform power days, racial origin and composition were selected. The animals were weighed individually and identified with plastic earring different color, to be distributed randomly according to a block design (3) complete random. To facilitate the handling of heifers and scheduling your humane slaughter, each block was postponed one week and was formed by three pens with 30 animals each.
Once done animals blocks, each pen within each block was completely randomized one of the following treatments: • Treatment CONT: Animals receiving the basal diet without additive (control). • Treatment FE5: Animals receiving the basal diet supplemented the last 30 days of fattening stage 5 ppm of ethyl ferulate. • Treatment FE10: Animals receiving the basal diet supplemented the last 30 days of the fattening phase with 10 ppm of ethyl ferulate.
The initial live weight of the animals was 484.68±2.84 kg. All animals were fed a basal diet with a ratio of forage:concentrate of 20:80, which was formulated to contain 1.62 Mcal of net energy gain/kg of feed, 12.7% crude protein, 0.91% Calcium and 0.27% phosphorus. The amount of ethyl ferulate per ton of feed was first added to the mineral premix and later it was incorporated into the automated experimental ration.
All animals were individually weighed at the beginning and end of the experimental test, for which an electronic scale Tru-Test 300 (Tru-Test Corporation, New Zealand) equipped with recording memory was used. Daily weight gain (GDP) was estimated by the difference between initial and final weight and divided by 30 (the feeding period).
Feed intake was recorded daily for corral, for which both the food offered and refused was weighed. Feed conversion per pen/treatment with the average food consumption ratio between GDP was also calculated.
(§1) Productive performance data were analyzed by ANOVA with a design of a randomized complete block using the method of generalized linear models (GLM) using initial weight as a covariate; data carcass quality were analyzed under a completely randomized design blocks. The variance analysis (mixed models procedure), included as a fixed effect to experimental treatments and as a random effect the initial weight of animals for productive performance data and final weight for carcass quality. The study data shelf life was analyzed using analysis of variance of two ways, considering the fixed effects of treatment and storage time. When differences between treatments were detected in productive performance variables and carcass quality, comparisons of means were performed by orthogonal contrasts. The following contrasts were tested: Contrast 1: Control vs FE5+FE10; Contrast 2: FE5 vs FE10. For data quality meat in the study of oxidative stability, the comparison of means was by the Tukey test. All data were processed in the statistical package NCSS (NCSS Version 8.0, 2012).

heifers [2] = test: Sacrifice and evaluation of carcass quality of supplemented heifers; type: in vivo, Bos taurus; settings: for Backfat / Cold carcass yield / Hot yield carcass / Rib eye area / Cold carcass weight / Hot carcass weight: last 30 days; for Cold carcass weight: 24 h postmortem; for Hot carcass weight: mean ± standard error; for Marbling: USDA marbling score (Little 500-599, Modesto 600-699); for % de Choice or greater: percentage of carcass classified Choice or higher
Procedure: Once the productive performance test was finished, the animals were sacrificed following the current regulations.
The pH was measured at 45 min and 24 h postmortem in the Longissimus dorsi (LD) at the 12th intercostal space using a portable digital potentiometer brand HANNA HI 99163 (Mettler-Toledo Process Analytical Inc., Wilmington, Mass., USA). The weight of the hot carcass was recorded, then the carcasses were cooled to 0° C. for 24 h.
At 24 h postmortem the weight of the cold carcass was measured. In at least 36 carcasses per treatment, area in cm^2 rib eye, the thickness of back fat in mm, was evaluated. The degree of marbling was also evaluated following USDA guidelines (2000): Trace (300-399), Light (400-499), Little (500-599), Modest (600-699), Moderate (700-799), Slightly abundant (800-899). These determinations were made in the LD muscle to level 12th intercostal space. Finally, the quality level of the channel according to USDA (2000) was estimated, based on the degree of marbling and carcass physiological maturity: Select − (400-449), Select + (450-499) Choice − (500-599), Choice medium (600-699), Choice + (700-799), Prime (800 or greater).
as §1

[3] = compared with ferulic acid; cited from earlier work
[4] = contrast C1: Control vs FE5+FE10, P<0.05
[5] = FE supplemented vs control, P<0.05

COc1cc(/C=C/C(=O)O)ccc1O [AF, Ferulic acid]
Recognition by β receptors on the cell membrane (β receptors): recognized by β receptors | Back fat thickness over the control group (swine): decrease

CCOC(=O)/C=C/c1ccc(O)c(OC)c1 [ethyl ferulate]
Final weight (heifers [1]; FE5: 5 ppm/day): 519.58 ± 5.4 kg | Feed conversion (heifers [1]; FE5: 5 ppm/day): 8.78 ± 0.6 kg | Daily gain (heifers [1]; FE5: 5 ppm/day): 1.13 ± 0.04 kg | Feed intake (heifers [1]; FE5: 5 ppm/day): 8.11 ± 0.07 kg | Final weight (heifers [1]; FE10: 10 ppm/day): 520.20 ± 5.63 kg | Feed conversion (heifers [1]; FE10: 10 ppm/day): 7.25 ± 0.27 kg | Daily gain (heifers [1]; FE10: 10 ppm/day): 1.23 ± 0.04 kg | Feed intake (heifers [1]; FE10: 10 ppm/day): 8.09 ± 0.07 kg | Less feed required to gain one kilogram of live weight (heifers [1]; FE supplemented heifers vs control): 4.3 kg | Improvement in feed conversion relative to control (heifers [1]; [4]): 35% | Increase of daily gain (GDP) relative to control (heifers [1]; [4]): 26% | Thickness of the dorsal fat, effect of treatments (heifers [2]; 5 and 10 ppm vs control, P>0.05): not affected by treatments | Marbling, 10 ppm FE regarding 5 ppm FE (heifers [2]; 10 ppm vs 5 ppm): higher marbling | Backfat (heifers [2]; FE5: 5 ppm/day): 14.60 ± 1.05 mm | Cold carcass yield (heifers [2]; FE5: 5 ppm/day): 61.77 ± 0.16% | Hot yield carcass (heifers [2]; FE5: 5 ppm/day): 62.38 ± 0.15% | Rib eye area (heifers [2]; FE5: 5 ppm/day): 85.67 ± 2.28 cm^2 | Cold carcass weight (heifers [2]; FE5: 5 ppm/day): 320.81 ± 3.25 kg | Hot carcass weight (heifers [2]; FE5: 5 ppm/day): 323.97 ± 3.25 kg | Marbling (heifers [2]; FE5: 5 ppm/day): 578.57 ± 16 | % de Choice or greater (heifers [2]; FE5: 5 ppm/day): 66.7% | Backfat (heifers [2]; FE10: 10 ppm/day): 15.82 ± 0.84 mm | Cold carcass yield (heifers [2]; FE10: 10 ppm/day): 61.68 ± 0.19% | Hot yield carcass (heifers [2]; FE10: 10 ppm/day): 62.39 ± 0.19% | Rib eye area (heifers [2]; FE10: 10 ppm/day): 86.60 ± 1.87 cm^2 | Cold carcass weight (heifers [2]; FE10: 10 ppm/day): 320.50 ± 3.19 kg | Hot carcass weight (heifers [2]; FE10: 10 ppm/day): 324.19 ± 3.23 kg | Marbling (heifers [2]; FE10: 10 ppm/day): 637.14 ± 15 | % de Choice or greater (heifers [2]; FE10: 10 ppm/day): 80% | Hot carcass weight (PCC) greater than control (heifers [2]; FE supplemented heifers vs control, P<0.001): 1.80% | Increase of cold carcass weight (PCF) vs control (heifers [2]; [5]): 1.86% | Marbling of supplemented compared to non supplemented animals (heifers [2]; [5]): More marbling | Increase in carcass weight vs control (heifers [2]; hot carcass, FE supplemented vs control): more than 5 kg | Antibacterial and antioxidant capacity [3]: very similar to those of ferulic acid
